For one assay, the system named is Hedgehog pathway. Nature of the assay: Hedgehog Pathway Cellular Differentiation Assay (alkaline phosphatase production in C3H10T1/2 cells with Shh ligand). Format: cell-based. The settings on record: 3 μM compound, Shh ligand conditioned media, 72 h, alkaline phosphatase. On the procedure: Hedgehog Pathway Cellular Differentiation Assay The ability of compounds of the invention to inhibit the Hedgehog pathway can be determined by the following cell differentiation assay. C3H10T1/2 cells were plated into 384 well plates at a concentration of 5000 cells/well in DMEM/10% FBS. The following day the media was changed to 20% conditioned media (low serum media DMEM/2% FBS+Shh ligand). Compounds were solubilized in 100% DMSO to a concentration of 10 mM and then serially diluted three fold in 100% DMSO. The highest concentration in the cell plate was 30 μM and the lowest was 3 nM. The compounds were then added to the cells. Cell plates were incubated with the compound for 72 h and then assayed for alkaline phosphatase production using pNp as a substrate. Briefly, after 72 h of incubation, the media was aspirated from the cells and washed with 30 μl of PBS. PBS was aspirated off the cells and 15 μl of 1×RIPA cell lysis buffer is added on to the cells. The cell plates are then incubated at −80° C. for 30 minutes to insure proper cell lysis. The plates were then thawed back to RT. The substrate solution containing pNp at 1 mg/mL in diethanolamine buffer pH 9.8 was then added onto the lysed cells. The plates were incubated at 30° C. for color development and read at an absorbance of 405 nm. The percent inhibition and IC50 value was then calculated from the absorbance data using standard procedures.
For the compound `Cc1ccc(-c2ccc3cc[nH]c3n2)cc1NC(=O)c1ccc(OCc2ccccn2)cc1` [Example 3, N-[5-(5,7-diazabicyclo[4.3.0]nona-2,4,8,10-tetraen-4-yl)-2-methyl-phenyl]-4-(pyridin-2-ylmethoxy)benzamide], the “% Inhibition at 3 μM” value stood at 67.3%.

The assay is the same for the next values; noted with them: Mus musculus, C3H 10T1/2, 3 μM compound, Shh ligand conditioned media, 72 h, alkaline phosphatase.
In turn, `Cc1ccc(-c2c[nH]cn2)cc1NC(=O)c1ccc(OCc2ccccn2)cc1` [Example 1, N-[5-(1H-imidazol-4-yl)-2-methyl-phenyl]-4-(pyridin-2-ylmethoxy)benzamide] yielded an inhibition at 3 µM of 64.9%.

Compound `Cc1ccc(-c2ncc(CN3CCN(C)CC3)s2)cc1NC(=O)c1ccc(OCc2ccccn2)cc1` [Example 2, N-[2-methyl-5-[5-[(4-methylpiperazin-1-yl)methyl]1,3-thiazol-2-yl]phenyl]-4-(pyridin-2-ylmethoxy)benzamide] showed an inhibition at 3 µM of 72.3%.

The compound `Cc1ccc(-c2ncc(Cn3cccn3)s2)cc1NC(=O)c1ccc(OCc2ccccn2)cc1` [Example 4, N-[2-methyl-5-[5-(pyrazol-1-ylmethyl)1,3-thiazol-2-yl]phenyl]-4-(pyridin-2-ylmethoxy)benzamide] had an inhibition at 3 µM of 65.4%.

`Cc1ccc(-c2cn3ccsc3n2)cc1NC(=O)c1ccc(OCc2ccccn2)cc1` [Example 5, N-[2-methyl-5-(4-thia-1,6-diazabicyclo[3.3.0]octa-2,5,7-trien-7-yl)phenyl]-4-(pyridin-2-ylmethoxy)benzamide] had an inhibition at 3 µM of 68.8%.

Take `Cc1ccc(-c2ccc(N)cn2)cc1NC(=O)c1ccc(OCc2ccccn2)cc1` [Example 6, N-[5-(5-aminopyridin-2-yl)-2-methyl-phenyl]-4-(pyridin-2-ylmethoxy)benzamide]: 3 µM produced 65.7% inhibition.

`Cc1ccc(-c2cccnc2)cc1NC(=O)c1ccc(OCc2ccccn2)cc1` [Example 7, N-(2-methyl-5-pyridin-3-yl-phenyl)-4-(pyridin-2-ylmethoxy)benzamide] had an inhibition at 3 µM of 70.8%.

Compound `Cc1ccc(-c2cccc(N)n2)cc1NC(=O)c1ccc(OCc2ccccn2)cc1` [Example 8, N-[5-(6-aminopyridin-2-yl)-2-methyl-phenyl]-4-(pyridin-2-ylmethoxy)benzamide] returned an inhibition at 3 µM of 66.5%.

In the case of `Cc1ccc(-c2ccccn2)cc1NC(=O)c1ccc(OCc2ccccn2)cc1` [Example 9, N-(2-methyl-5-pyridin-2-yl-phenyl)-4-(pyridin-2-ylmethoxy)benzamide], at 3 µM the inhibition was 60.5%.

For `Cc1ccc(-c2cnc(N)cn2)cc1NC(=O)c1ccc(OCc2ccccn2)cc1` [Example 10, N-[5-(5-aminopyrazin-2-yl)-2-methyl-phenyl]-4-(pyridin-2-ylmethoxy)benzamide], the inhibition at 3 µM was 63.5%.

Compound `Cc1ccc(-c2ccncc2)cc1NC(=O)c1ccc(OCc2ccccn2)cc1` [Example 11, N-(2-methyl-5-pyridin-4-yl-phenyl)-4-(pyridin-2-ylmethoxy)benzamide] yielded an inhibition at 3 µM of 75%.

Take `Cc1ccc(-c2ncc(CN3CCOCC3)s2)cc1NC(=O)c1ccc(OCc2ccccn2)cc1` [Example 12, N-[2-methyl-5-[5-(morpholin-4-ylmethyl)1,3-thiazol-2-yl]phenyl]-4-(pyridin-2-ylmethoxy)benzamide]: 3 µM produced 74.2% inhibition.

The compound `Cc1ccc(-c2nccn2C)cc1NC(=O)c1ccc(OCc2ccccn2)cc1` [Example 13, N-[2-methyl-5-(1-methylimidazol-2-yl)phenyl]-4-(pyridin-2-ylmethoxy)benzamide] gave an inhibition at 3 µM of 64.9%.

`Cc1ccc(-c2nc3cc([N+](=O)[O-])ccc3[nH]2)cc1NC(=O)c1ccc(OCc2ccccn2)cc1` [Example 14, N-[2-methyl-5-(5-nitro-1H-benzoimidazol-2-yl)phenyl]-4-(pyridin-2-ylmethoxy)benzamide] came in with an inhibition at 3 µM of 79.2%.

Turning to `Cc1ccc(-c2ccc(N)nn2)cc1NC(=O)c1ccc(OCc2ccccn2)cc1` [Example 15, N-[5-(6-aminopyridazin-3-yl)-2-methyl-phenyl]-4-(pyridin-2-ylmethoxy)benzamide], at 3 µM the inhibition was 80.7%.

`Cc1ccc(-c2nccs2)cc1NC(=O)c1ccc(OCc2ccccn2)cc1` [Example 16, N-(2-methyl-5-1,3-thiazol-2-yl-phenyl)-4-(pyridin-2-ylmethoxy)benzamide] showed an inhibition at 3 µM of 68.6%.

`Cc1ccc(-c2nc3ccccc3s2)cc1NC(=O)c1ccc(OCc2ccccn2)cc1` [Example 17, N-(5-benzothiazol-2-yl-2-methyl-phenyl)-4-(pyridin-2-ylmethoxy)benzamide]: 3 µM produced 53.5% inhibition.

As for `Cc1ccc(-c2ncnc3nc[nH]c23)cc1NC(=O)c1ccc(OCc2ccccn2)cc1` [Example 18, N-[2-methyl-5-(7H-purin-6-yl)phenyl]-4-(pyridin-2-ylmethoxy)benzamide], at 3 µM the inhibition was 48.4%.

As to `CCOC(=O)c1sc(-c2ccc(C)c(NC(=O)c3ccc(OCc4ccccn4)cc3)c2)nc1C` [Example 19, ethyl 4-methyl-2-[4-methyl-3-[[4-(pyridin-2-ylmethoxy)benzoyl]amino]phenyl]1,3-thiazole-5-carboxylate], the inhibition at 3 µM was 52%.

Take `Cc1ccc(-c2ncc(C)n2C)cc1NC(=O)c1ccc(OCc2ccccn2)cc1` [Example 20, N-[5-(1,5-dimethylimidazol-2-yl)-2-methyl-phenyl]-4-(pyridin-2-ylmethoxy)benzamide]: testing at 3 µM gave an inhibition of 58.1%.

`Cc1ccc(-c2cn(C)cn2)cc1NC(=O)c1ccc(OCc2ccccn2)cc1` [Example 21, N-[2-methyl-5-(1-methyl-1H-imidazol-4-yl)phenyl]-4-(pyridin-2-ylmethoxy)benzamide]: testing at 3 µM gave an inhibition of 73.4%.

On to `Cc1ccc(-c2cnc3ccccc3n2)cc1NC(=O)c1ccc(OCc2ccccn2)cc1` [Example 22, N-(2-methyl-5-quinoxalin-2-yl-phenyl)-4-(pyridin-2-ylmethoxy)benzamide], for which 3 µM produced 60.7% inhibition.

Compound `Cc1ccc(-c2cnc(C)n2C)cc1NC(=O)c1ccc(OCc2ccccn2)cc1` [Example 23, N-[5-(1,2-dimethyl-1H-imidazol-5-yl)-2-methylphenyl]-4-(pyridin-2-ylmethoxy)benzamide] gave an inhibition at 3 µM of 73.6%.

Compound `Cc1nc(-c2ccc(C)c(NC(=O)c3ccc(OCc4ccccn4)cc3)c2)c[nH]1` [Example 24, N-[2-methyl-5-(2-methyl-1H-imidazol-4-yl)phenyl]-4-(pyridin-2-ylmethoxy)benzamide] yielded an inhibition at 3 µM of 81.1%.

On to `Cc1cnc(-c2ccc(C)c(NC(=O)c3ccc(OCc4ccccn4)cc3)c2)[nH]1` [Example 25, N-[2-methyl-5-(5-methyl-1H-imidazol-2-yl)phenyl]-4-(pyridin-2-ylmethoxy)benzamide], for which the inhibition at 3 µM worked out at 79.5%.

`Cc1cn(C)c(-c2ccc(C)c(NC(=O)c3ccc(OCc4ccccn4)cc3)c2)n1` [Example 26, N-[5-(1,4-dimethyl-1H-imidazol-2-yl)-2-methylphenyl]-4-(pyridin-2-ylmethoxy)benzamide] yielded an inhibition at 3 µM of 75.7%.

The compound `Cc1ccc(-c2[nH]cnc2C)cc1NC(=O)c1ccc(OCc2ccccn2)cc1` [Example 27, N-[2-methyl-5-(4-methyl-1H-imidazol-5-yl)phenyl]-4-(pyridin-2-ylmethoxy)benzamide] registered an inhibition at 3 µM of 76.6%.

`Cc1ccc(-c2ncc(C(F)(F)F)[nH]2)cc1NC(=O)c1ccc(OCc2ccccn2)cc1` [Example 28, N-{2-methyl-5-[5-(trifluoromethyl)-1H-imidazol-2-yl]phenyl}-4-(pyridin-2-ylmethoxy)benzamide] displayed an inhibition at 3 µM of 91.9%.

As to `Cc1ccc(-c2ncc[nH]2)cc1NC(=O)c1ccc(OCc2ccccn2)cc1` [Example 29, N-[5-(1H-imidazol-2-yl)-2-methyl-phenyl]-4-(pyridin-2-ylmethoxy)benzamide], the inhibition at 3 µM was determined as 75.3%.

`Cc1ccc(-c2nc3ccccc3[nH]2)cc1NC(=O)c1ccc(OCc2ccccn2)cc1` [Example 30, N-[5-(1H-benzoimidazol-2-yl)-2-methyl-phenyl]-4-(pyridin-2-ylmethoxy)benzamide] had an inhibition at 3 µM of 80.1%.

Consider `Cc1cc(-c2nc3ccccc3[nH]2)ccc1NC(=O)c1ccc(OCc2ccccn2)cc1` [Example 31, N-[4-(1H-benzoimidazol-2-yl)-2-methyl-phenyl]-4-(pyridin-2-ylmethoxy)benzamide], for which at 3 µM the inhibition was 27.9%.

Compound `Cc1nc(C)c(-c2ccc(C)c(NC(=O)c3ccc(OCc4ccccn4)cc3)c2)s1` [Example 32, N-[5-(2,4-dimethyl1,3-thiazol-5-yl)-2-methyl-phenyl]-4-(pyridin-2-ylmethoxy)benzamide] came in with an inhibition at 3 µM of 54.1%.

Compound `Cc1ccc(-c2cnn(C)c2)cc1NC(=O)c1ccc(OCc2ccccn2)cc1` [Example 33, N-[2-methyl-5-(1-methylpyrazol-4-yl)phenyl]-4-(pyridin-2-ylmethoxy)benzamide] displayed an inhibition at 3 µM of 54.7%.

`Cc1ccc(-c2ccnn2C)cc1NC(=O)c1ccc(OCc2ccccn2)cc1` [Example 34, N-[2-methyl-5-(2-methylpyrazol-3-yl)phenyl]-4-(pyridin-2-ylmethoxy)benzamide] yielded an inhibition at 3 µM of 69.4%.

Staying with this assay, now noted: Mus musculus, C3H 10T1/2, Shh ligand conditioned media, 72 h, alkaline phosphatase (pNp, 405 nm).
The compound `Cc1ccc(-c2ccccn2)cc1NC(=O)c1ccc(OCc2ccccn2)cc1` [Example 9, N-(2-methyl-5-pyridin-2-yl-phenyl)-4-(pyridin-2-ylmethoxy)benzamide] returned an IC50 of 120 nM.

With `Cc1ccc(-c2ncnc3nc[nH]c23)cc1NC(=O)c1ccc(OCc2ccccn2)cc1` [Example 18, N-[2-methyl-5-(7H-purin-6-yl)phenyl]-4-(pyridin-2-ylmethoxy)benzamide], the half-inhibitory concentration (IC50) was found to be 30 nM.

Turning to `Cc1ccc(-c2ncc(C)n2C)cc1NC(=O)c1ccc(OCc2ccccn2)cc1` [Example 20, N-[5-(1,5-dimethylimidazol-2-yl)-2-methyl-phenyl]-4-(pyridin-2-ylmethoxy)benzamide], the concentration for half-maximal inhibition (IC50) is less than 3 nM.

In general, % Inhibition refers to the change of the read-out against control, counted positive when it falls. For orientation: inhibition means the drop in the measured response relative to a control, in per cent. By IC50 is commonly meant the concentration that inhibits the measured activity by half. High values mean a need for much substance, low ones inhibition by little substance.

(Values after US20100311748A1, “HETEROCYCLIC AMIDES USEFUL FOR THE TREATMENT OF CANCER AND PSORIASIS” (ASTRAZENECA AB, priority 2007, published 2010).)
